Where a name gives a salt, the structure may show the parent alone. Read-outs that look alike come from different tables or passages of the source.
Experiments:
PPARg = assay: PPARgamma Transient Cotransfection Assay; type: cell-based; details: CAT reporter, read-out: PPARg EC50
hPPARgamma = biological target: T1, hPPARgamma (Homo sapiens, UniProt P37231); assay: hPPARgamma Ligand Binding Assay; details: competition with [3H]-BRL 49,653, room temperature 2 hrs
T1 construct: 10x-histidine tag (N); made in house; host or cells: E. coli
T1 sequence (P37231 195-475 isoform P37231-2): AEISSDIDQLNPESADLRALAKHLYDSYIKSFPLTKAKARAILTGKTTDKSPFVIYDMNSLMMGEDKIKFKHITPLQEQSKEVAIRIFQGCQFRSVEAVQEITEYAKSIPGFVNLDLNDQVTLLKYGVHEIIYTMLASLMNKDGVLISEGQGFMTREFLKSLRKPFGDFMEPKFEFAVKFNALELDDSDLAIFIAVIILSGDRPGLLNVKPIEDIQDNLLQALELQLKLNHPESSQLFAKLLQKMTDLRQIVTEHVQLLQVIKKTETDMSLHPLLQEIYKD

Structure (SMILES)	EC50 (PPARg) [nM]	Ki (hPPARgamma; PPARg Ki) [nM]	Ki (hPPARgamma; read-out: PPARg Ki) [nM]
CN(CCOc1ccc(CC(Nc2ccccc2C(=O)c2ccccc2)C(=O)O)cc1)c1nc2ccccc2o1 (centres unmarked) [Example 15, 3-{4-[2-(benzoxazol-2-yl-methyl-amino)-ethoxy]-phenyl}-2-(2-benzoyl-phenylamino)-propionic acid]	1	40	–
CC(=CC(=O)c1ccccc1)N[C@@H](Cc1ccc(OCCN(C)c2nc3ccccc3o2)cc1)C(=O)O [Example 17, 3-{4-[2-(Benzoxazol-2yl-methyl-amino)-ethoxy]-phenyl}-2(S)-(1-methyl-3-oxo-3-phenyl-propenylamino)-propionic acid dicyclohexylamine salt]	1	80	–
CC(=CC(=O)c1cccc(I)c1)N[C@@H](Cc1ccc(OCCN(C)c2nc3ccccc3o2)cc1)C(=O)O [Example 18, 3-{4-[2-(Benzoxazol-2-yl-methyl-amino)-ethoxy]-phenyl}-2(S)-[3-(3-iodo-phenyl)-1-methyl-3-oxo-propenylamino]-propionic acid dicyclohexylamine salt]	5	10	–
Cc1ccc(NC(Cc2ccc(OCCN(C)c3nc4ccccc4o3)cc2)C(=O)O)c(C(=O)c2ccccc2)c1 (centres unmarked) [Example 19, 3-{4-[2-(benzoxazol-2-yl-methyl-amino)-ethoxy]-phenyl}-2-(2-benzoyl-4-methyl-phenylamino)-propionic acid]	65	185	–
CN(CCOc1ccc(CC(Nc2ccc(Cl)cc2C(=O)c2ccccc2)C(=O)O)cc1)c1nc2ccccc2o1 (centres unmarked) [Example 20, 3-{4-[2-(benzoxazol-2-yl-methyl-amino)-ethoxy]-phenyl}-2-(2-benzoyl-4-chloro-phenylamino)-propionic acid]	120	180	–
O=C(c1ccccc1)c1ccccc1NC(Cc1ccc(OC2CCN(c3nc4ccccc4o3)C2)cc1)C(=O)O (centres unmarked) [Example 21, 3-[4-(1-Benzoxazol-2-yl-pyrrolidin-3-yloxy)-phenyl]-2-(2-benzoyl-phenylamino)-propionic acid]	150	530	–
O=C(c1ccccc1)c1ccccc1NC(Cc1ccc(OC[C@H]2CCCN2c2nc3ccccc3o2)cc1)C(=O)O (some centres unmarked) [Example 22]	20	65	–
O=C(c1ccccc1)c1ccccc1NC(Cc1ccc(OC[C@@H]2CCCN2c2nc3ccccc3o2)cc1)C(=O)O (some centres unmarked) [Example 23]	1	50	–
CN(CCOc1ccc(CC(Nc2ccccc2C(=O)C2CCCCC2)C(=O)O)cc1)c1nc2ccccc2o1 (centres unmarked) [Example 24, 3-{4-[2-(Benzoxazol-2-yl-methyl-amino)-ethoxy]-phenyl}-2-(2-cyclohexanecarbonyl-phenylamino)-propionic acid]	1	30	–
CN(CCOc1ccc(CC(Nc2ccsc2C(=O)c2ccccc2)C(=O)O)cc1)c1nc2ccccc2o1 (centres unmarked) [Example 25]	1	70	–
CN(CCOc1ccc(CC(Cc2ccccc2)C(=O)O)cc1)c1nc2ccccc2o1 (centres unmarked) [Example 26, 3-{4-[2-(Benzoxazol-2-yl-methyl-amino)-ethoxy]-phenyl}-2-benzyl-propionic acid trifluoroacetate]	670	1900	–
CN(CCOc1ccc(CC(Cc2ccccc2Br)C(=O)O)cc1)c1nc2ccccc2o1 (centres unmarked) [Example 27, 3-{4-[2-(Benzoxazol-2-yl-methyl-amino)-ethoxy]-phenyl}-2-(2-bromo-benzyl)-propionic acid trifluoroacetate]	400	300	–
O=C(c1ccccc1)c1ccccc1NC(Cc1ccc(OCc2csc(-c3ccc(Cl)cc3)n2)cc1)C(=O)O (centres unmarked) [Example 30, 2-(2-Benzoyl-phenylamino)-3-{4-[2-(4-chlorophenyl)-thiazol-4ylmethoxy]-phenyl}-propionic acid]	50	300	–
O=C(c1ccccc1)c1ccccc1NC(Cc1ccc(OCCn2cnc3ccccc32)cc1)C(=O)O (centres unmarked) [Example 31, 3-[4-(2-Benzoimidazol-1-yl-ethoxy)-phenyl]-2-(2-benzoyl-phenylamino)-propionic acid]	450	145	–
Cc1nnsc1-c1nc(CCOc2ccc(C[C@H](Nc3ccccc3C(=O)c3ccccc3)C(=O)O)cc2)c(C)s1 [Example 41, 2(S)-(2-benzoyl-phenylamino)-3-(4-{2-[5-methyl-2-(4-methyl[1,2,3]thiadiazol-5-yl)-thiazol-4-yl]ethoxy}-phenyl)-propionic acid]	5	70	–
COC(=O)c1ccccc1N[C@@H](Cc1ccc(OCCc2nc(-c3ccccc3)sc2C)cc1)C(=O)O [Example 45, 2-(1-Carboxy-2-{4-[2-(5-methyl-2-phenyl-thiazol-4-yl)-ethoxy]-phenyl}-ethylamino)-benzoic acid methyl ester]	1	30	–

Structure (SMILES)	EC50 (PPARg) [nM]	Ki (hPPARgamma; PPARg Ki) [nM]	Ki (hPPARgamma; read-out: PPARg Ki) [nM]
COC(=O)c1ccccc1N[C@@H](Cc1ccc(OCCSc2ccc(Cl)cc2)cc1)C(=O)O [Example 46, 2-(1-Carboxy-2-{4-[2-(4-clhorophenylsulfanyl)-ethoxy]-phenyl}-ethylamino)-benzoic acid methyl ester]	900	750	–
COC(=O)c1ccccc1N[C@@H](Cc1ccc(OC[C@@H]2CCCN2c2ccc([N+](=O)[O-])cc2)cc1)C(=O)O [Example 47, 2-(1-Carboxy-2-{4-[1-(4-nitro)-phenyl-pyrrolidin-2-ylmethoxy]-phenyl}-ethylamino)-benzoic acid methyl ester]	50	240	–
CN(CCOc1ccc(CC(Nc2ccccc2C(=O)C2CCCC2)C(=O)O)cc1)c1nc2ccccc2o1 (centres unmarked) [Example 48, 3-{4-[2-(Benzoxazol-2-yl-methyl-amino)-ethoxy]-phenyl}-2-(2-cyclopentanecarbonyl-phenylamino)-propionic acid]	20	115	–
CN(CCOc1ccc(CC(Nc2ccccc2C(=O)C2CCCCCC2)C(=O)O)cc1)c1nc2ccccc2o1 (centres unmarked) [Example 49, 3-{4-[2-(Benzoxazol-2-yl-methyl-amino)-ethoxy]-phenyl}-2-(2-cycloheptanecarbonyl-phenylamino)-propionic acid]	10	80	–
CN(CCOc1ccc(CC(Nc2cc(F)ccc2C(=O)C2CCCCC2)C(=O)O)cc1)c1nc2ccccc2o1 (centres unmarked) [Example 50, 3-{4-[2-(Benzoxazol-2-yl-methyl-amino)-ethoxy]-phenyl}-2-(2-cyclohexanecarbonyl-5-fluoro-phenylamino)-propionic acid]	50	390	–
CN(CCOc1ccc(CC(Nc2c(C(=O)C3CCCCC3)cnn2C)C(=O)O)cc1)c1nc2ccccc2o1 (centres unmarked) [Example 51, 3-{4-[2-(Benzoxazol-2-yl-methyl-amino)-ethoxy]-phenyl}-2-(4-cyclohexanecarbonyl-2-methyl-2H-pyrazol-3-ylamino)-propionic acid]	350	140	–
CN(CCOc1ccc(CC(Nc2sccc2C(=O)c2ccccc2)C(=O)O)cc1)c1nc2ccccc2o1 (centres unmarked) [Example 52, 3-{4-[2-(Benzoxazol-2-yl-methyl-amino)-ethoxy]-phenyl}-2-(3-benzoyl-thiophene-2-ylamino)-propionic acid]	80	100	–
O=C(c1ccccc1)c1ccccc1NC(Cc1ccc(OC2CCN(c3nc4ccccc4o3)C2)cc1)C(=O)O (centres unmarked) [Example 55, 3-[4-(1-Benzoxazol-2-yl-pyrrolidin-3-yloxy)-phenyl]-2-(2-benzoyl-phenylamino)-propionic acid]	460	1400	–
Cc1oc(-c2ccccc2)nc1CCOc1ccc(C[C@H](Nc2ccccc2C(=O)c2ccncc2)C(=O)O)cc1 [Example 56, 3-{4-[2-(5-Methyl-2-phenyl-oxazol-4-yl)-ethoxy]-phenyl}-2(S)-[2-(pyridine-4-carbonyl)-phenylamino]-propionic acid]	1	10	–
Cc1oc(-c2ccccc2)nc1CCOc1ccc(C[C@H](Nc2ccccc2C(=O)c2cc[n+]([O-])cc2)C(=O)O)cc1 [Example 57, 3-{4-[2-(5-methyl-2-phenyl-oxazol-4-yl)-ethoxy]-phenyl}-2(S)-[2-(pyridineN-oxide-4-carbonyl)-phenylamino]-propionic acid]	150	1240	–
Cc1oc(-c2ccccc2)nc1CCOc1ccc(C[C@H](Nc2ccccc2C(=O)c2cccnc2)C(=O)O)cc1 [Example 58, 3-{4-[2-(5-Methyl-2-phenyl-oxazol-4-yl)-ethoxy]-phenyl}-2(S)-[2-(pyridine-3-carbonyl)-phenylamino]-propionic acid]	1	30	–
Cc1oc(-c2ccccc2)nc1CCOc1ccc(C[C@H](Nc2ccccc2C(=O)c2ccc[n+]([O-])c2)C(=O)O)cc1 [Example 59, 3-{4-[2-(5-methyl-2-phenyl-oxazol-4-yl)-ethoxy]-phenyl}-2(S)-[2-(pyridine-N-oxide-3-carbonyl)-phenylamino]-propionic acid]	95	100	–
O=C(c1ccccc1)c1ccccc1N[C@@H](Cc1ccc(OC[C@@H]2CCCN2c2ccccn2)cc1)C(=O)O [Example 61, 2S-(2-benzoyl-phenylamino)-3-[4-(1-pyridin-2-yl-pyrrolidin-2S-yl-methoxy)-phenyl]-propionic acid]	15	10	–
Cc1cc(-c2ccco2)nn1CCOc1ccc(C[C@H](Nc2ccccc2C(=O)c2ccccc2)C(=O)O)cc1 [Example 63, 2S-(2-benzoyl-phenylamino)-3-{4-[2-(3-furan-2-yl-5-methyl-pyrazol-1-yl)-ethoxy]-phenyl}-propionic acid]	20	30	–
COC(=O)c1ccccc1N[C@@H](Cc1ccc(OCCOc2ccc([N+](=O)[O-])cn2)cc1)C(=O)O [Example 69]	100	–	290

Source: US6294580A, “Substituted 4-hydroxy-phenylalcanoic acid derivatives with agonist activity to PPAR-gamma” (Glaxo Wellcome Inc., priority 1996, dated 2001)
